# Laboratory results as given in ChEMBL document CHEMBL5223085, “Agonist Lock Touched and Untouched Retinoic Acid Receptor-Related Orphan Receptor-γt (RORγt) Inverse Agonists: Classification Based on the Molecular Mechanisms of Action” (J Med Chem, 2021).
# pIC50, pKi: −log10 of the molar value.
# Columns and labels:
# [1] = target: T1, Nuclear receptor ROR-gamma (Homo sapiens, UniProt P51449); assay: Inverse agonist activity against human RORgammat by FRET assay
# T1 sequence (P51449 whole entry): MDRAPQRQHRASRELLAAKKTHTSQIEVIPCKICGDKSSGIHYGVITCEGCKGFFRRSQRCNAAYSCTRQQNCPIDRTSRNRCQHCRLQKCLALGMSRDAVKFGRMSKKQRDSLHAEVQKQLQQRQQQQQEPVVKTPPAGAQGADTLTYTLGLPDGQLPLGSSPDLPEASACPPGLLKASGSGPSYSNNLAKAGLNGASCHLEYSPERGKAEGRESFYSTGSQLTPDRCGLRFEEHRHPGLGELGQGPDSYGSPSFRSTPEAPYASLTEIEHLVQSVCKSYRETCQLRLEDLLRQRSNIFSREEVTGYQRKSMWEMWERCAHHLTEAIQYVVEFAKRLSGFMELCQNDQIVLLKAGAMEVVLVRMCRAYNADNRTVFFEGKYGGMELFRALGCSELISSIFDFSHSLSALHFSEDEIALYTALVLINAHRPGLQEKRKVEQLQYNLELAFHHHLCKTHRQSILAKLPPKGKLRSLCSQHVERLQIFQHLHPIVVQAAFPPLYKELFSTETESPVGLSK
# [2] = target: T1, Nuclear receptor ROR-gamma; assay: Displacement of 25-[26,27-3H2]-hydroxycholesterol from RORgammat (unknown origin) assessed as inhibition constant by scintillation proximity assay
pIC50 [1],pKi [2],SMILES
8.30,–,Cc1ccc([C@@H](NC(=O)Cc2ccc3oc(C(O)c4c(C)noc4C)cc3c2)c2ccccc2)c(C)c1 (stereo partly drawn)
8.52,–,Cc1ccc(C(NC(=O)Cc2ccc(OCc3c(C)noc3C)cc2)c2ccccc2)c(C)c1 (stereo not drawn)
–,8.43,CCS(=O)(=O)c1ccc(CC(=O)Nc2cnc3c(c2)CN(C[C@H]2CC[C@H](C(F)(F)F)CC2)[C@H]3C(C)C)nc1
